Source: patent US4002660A, “S-(4-Chlorophenyl)-3-aryl-3-hydroxypropanethioates” (Morton-Norwich Products, Inc., priority 1976, dated 1977)
In brackets after ≈: the same amount, converted by molar mass.

What was measured:
Experiment in all cases: antibacterial potency, serial dilution technique (MIC)
Type in all cases: cell-based
P. multocida = conditions: Pasteurella multocida, read-out: Minimum Inhibitory Concentration
Co. liquefaciens = conditions: read-out: Minimum Inhibitory Concentration
St. agalactiae = conditions: Streptococcus agalactiae, read-out: Minimum Inhibitory Concentration
S. aureus = conditions: Staphylococcus aureus, read-out: Minimum Inhibitory Concentration
He. Vaginalis = conditions: Gardnerella vaginalis, read-out: Minimum Inhibitory Concentration

Compound	MIC (P. multocida) [µg/mL]	MIC (Co. liquefaciens) [µg/mL]	MIC (St. agalactiae) [µg/mL]	MIC (S. aureus) [µg/mL]	MIC (He. Vaginalis) [µg/mL]
O=C(CC(O)c1ccccc1)Sc1ccc(Cl)cc1 (stereo not drawn) [I, S-(4-Chlorophenyl)-3-Hydroxy-3-phenylpropanethioate]	6.25 (≈ 21.3 µM)	6.25 (≈ 21.3 µM)	3.13 (≈ 10.7 µM)	6.25 (≈ 21.3 µM)	12.5 (≈ 42.7 µM)
Cc1ccc(C(O)CC(=O)Sc2ccc(Cl)cc2)cc1 (stereo not drawn) [II, S-(4-Chlorophenyl) 3-Hydroxy-3-(4-methylphenyl)propanethioate]	3.13 (≈ 10.2 µM)	12.5 (≈ 40.7 µM)	3.13 (≈ 10.2 µM)	12.5 (≈ 40.7 µM)	3.1 (≈ 10.1 µM)
CCc1ccc(C(O)CC(=O)Sc2ccc(Cl)cc2)cc1 (stereo not drawn) [III, S-(4-Chlorophenyl) 3-(4-Ethylphenyl)-3-hydroxypropanethioate]	6.25 (≈ 19.5 µM)	6.25 (≈ 19.5 µM)	3.13 (≈ 9.76 µM)	6.25 (≈ 19.5 µM)	6.25 (≈ 19.5 µM)
O=C(CC(O)c1ccc(Cl)cc1)Sc1ccc(Cl)cc1 (stereo not drawn) [IV, S-(4-Chlorophenyl) 3-(4-Chlorophenyl)-3-hydroxypropanethioate]	6.25 (≈ 19.1 µM)	6.25 (≈ 19.1 µM)	6.25 (≈ 19.1 µM)	12.5 (≈ 38.2 µM)	3.1 (≈ 9.47 µM)
O=C(CC(O)c1ccc(Cl)cc1Cl)Sc1ccc(Cl)cc1 (stereo not drawn) [V, S-(4-Chlorophenyl) 3-(2,4-Dichlorophenyl)-3-hydroxypropanethioate]	25 (≈ 69.1 µM)	3.1 (≈ 8.57 µM)	12.5 (≈ 34.6 µM)	6.25 (≈ 17.3 µM)	12.5 (≈ 34.6 µM)
O=C(CC(O)c1ccc(Cl)c(Cl)c1)Sc1ccc(Cl)cc1 (stereo not drawn) [VI, S-(4-Chlorophenyl) 3-(3,4-Dichlorophenyl)-3-hydroxypropanethioate]	25 (≈ 69.1 µM)	12.5 (≈ 34.6 µM)	12.5 (≈ 34.6 µM)	25 (≈ 69.1 µM)	25 (≈ 69.1 µM)
Cc1ccc(C(O)CC(=O)Sc2ccc(Cl)cc2)cc1Cl (stereo not drawn) [VII, S-(4-Chlorophenyl) 3-(3-Chloro-4-methylphenyl)-3-hydroxypropanethioate]	25 (≈ 73.3 µM)	12.5 (≈ 36.6 µM)	12.5 (≈ 36.6 µM)	12.5 (≈ 36.6 µM)	25 (≈ 73.3 µM)
